According to patent publication US9862754B2, “Peptide analogs for treating diseases and disorders” (KeyBioscience AG, priority 2011, dated 2018):
Bridge positions count the residues as written; N and C are the ends. Ends that are not written are not given here.

Experiments:
Format in all cases: in vivo, rat
[1] = Example 2: OGTT after 3 days of oral treatment in DIO rats; details: 0.5, 1 and 2 mg/kg p.o. b.i.d. 3 days prior to OGTT, cross-over, vs oral vehicle
Procedure: (§1) Drug administration were given by per oral (p.o.) gavage b.i.d. during the study period and as single dose in the morning prior to start of OGTT.
(§2) Animals were given 2 g/kg single dose dissolved in milliQ H20.
Following the initial (1st) OGTT, animals are randomized into treatment groups based on FBG and BW. Animals will be pre-treated 3 days (b.i.d.) prior to 2nd OGTT. Dosing will be performed in the morning (7-8 am) and afternoon (3-4 pm).
The study was performed in an x-over design with each animal being its own control.
(§3) OGTT Following Overnight Fasting (16 h):
Whole blood glucose levels were determined with an ACCU-CHEK® Avia blood glucose meter (Roche Diagnostics, Rotkreuz, Switzerland). […]
Statistical analysis was performed by one-way ANOVA followed by the Dunnett's post hoc test for multiple comparison. […] Incremental area under curve (iAUC) during OGTT was calculated by the trapezoidal method. […]
Three different doses of oral sCT/calcitonin mimetic 1 containing 0.5, 1 and 2 mg/kg compound were applied by gavage twice daily to 4 groups of rats for 3 days prior to OGTT. […] FIG. 7A and FIG. 7B show the effect of oral sCT versus oral UGP 302 at a first dosage on glucose tolerance during OGTT in DIO rats as measured in Example 2. FIG. 8A and FIG. 8B show the effect of oral sCT versus oral UGP 302 at a second dosage on glucose tolerance during OGTT in DIO rats as measured in Example 2.

[2] = Example 3: OGTT after 3 days of oral treatment in DIO rats; details: doses of 0.5, 1 and 2 mg/kg p.o.
Procedure: as §1, §2
Following the initial (1st) OGTT, animals were randomized into treatment groups based on FBG and BW. Animals were pre-treated 3 days (b.i.d.) prior to 2nd OGTT. The study was performed in an x-over design with each animal being its own control.
as §3
Blood sampling and glycemia were measured by heated tail venous puncture. Whole blood glucose levels were determined with an ACCU-CHEK® Avia blood glucose meter (Roche Diagnostics, Rotkreuz, Switzerland). Blood (approx 300 μl) is collected in 1 ml MiniCollect K3EDTA plasma-tube (Greiner-Bio-One GmbH, Frickenhausen, Germany), inverted, and stored on ice. Tubes are centrifuged 3000×g (5000 rpm in table centrifuge) for 10 min at 4° C. and plasma obtained. Plasma samples are stored at −20° C. until analysis. A total of ˜2.5 ml blood is obtained during OGTT (˜0.3% of body weight).
Statistical analysis was performed by one-way ANOVA followed by the Dunnett's post hoc test for multiple comparison. Student's t-test was performed to compare two paired group. All analysis was performed using GRAPHPAD PRISM software (GraphPad Prism, San Diego, Calif. U.S.A). Incremental area under curve (iAUC) during OGTT was calculated by the trapezoidal method. A value of P<0.05 was considered to be significant. All data are presented as mean±standard error of the mean (SEM).
FIG. 10A, FIG. 10B, FIG. 10C, FIG. 10D, FIG. 10E, and FIG. 10F show the effect of oral sCT versus oral UGPs on glucose tolerance during OGTT in DIO rats. Three different doses of oral sCT/UGP284/UGP298/UGP302 containing 0.5, 1 and 2 mg/kg compound were applied by gavage twice daily to 4 groups of rats for 3 days prior to OGTT. The experimental set-up was a cross-over design. * P<0.05, ** P<0.01, *** P<0.001 vs oral vehicle. Results are presented as means±SEM.

CTX-II = assay: Example 6: serum CTX-II (Serum PC Cartilaps ELISA), cartilage degradation in DIO rats; details: 1 mg/kg p.o. with 150 mg/kg 5-CNAC, 2 hours after treatment, vs sCT
Procedure: The effect of sCT/calcitonin mimetic on bone and cartilage loss was studied in DIO rats. The animals were dosed as described in Table 6 below, and 2 hours after treatment blood sampling was done by heated tail venous puncture.
Serum CTX-I levels, as an indication of bone resorption, were measured using the RatLaps™ ELISA, and serum CTX-II levels, as an indication of cartilage degradation, were measured using the Serum PC Cartilaps™ ELISA.

Substance	glucose iAUC during OGTT [1]	glucose tolerance during OGTT [2]	cartilage degradation (serum CTX-II levels) (CTX-II)
salmon calcitonin (CSNLSTCVLGKLSQELHKLQTYPRTNTGSGTP-NH2; disulfide 1-7; ends not checked) [sCT, reference compound]	significantly reduced glucose iAUC		
Ac-CSNLSTCVLGKLSQELHKLQTYPRTDVGANAP-NH2 (Ac-CSNLSTCVLGKLSQELHKLQTYPRTDVGANAP-NH2; ends and bridges not checked) [UGP302, calcitonin mimetic]		improvement in glucose tolerance	stronger effect in reduction
